Bridge positions count the residues as written; N and C are the ends. Ends that are not written are not given here. I, II: the chains in the order shown.
B1: recombinant human Artemin (ARTN) (ligand, UniProt Q5T4W7 108-220, looked up)
chain: AGGPGSRARAAGARGCRLRSQLVPVRALGLGHRSDELVRFRFCSGSCRRARSPHDLSLASLLGAGALRPPPGSRPVSQPCCRPTRYEAVSFMDVNSTWRTVDRLSATACGCLG
notes: Artemin (ARTN), human, UniProt D3DPX9; source: bought: R&D Systems

Columns and labels:
[1] = tested on: RET; cerebellar granule neurons (CGNs); assay: Neurite outgrowth in CGNs with anti-RET antibody; type: cell-based, Wistar rat; conditions: for neurite outgrowth without antibody: ARTN 0.042 nM or artefin 0.47 μM, versus control; for neurite outgrowth with anti-RET antibody / neurite outgrowth with control IgG: 1 h before ARTN 0.042 nM or artefin 0.47 μM; for neurite outgrowth with control IgG: control IgG 4.1 μg/ml
Protocol: (§1) Cerebellar granule neurons (CGNs) were prepared from 7-day-old Wistar rat pups (Charles River Laboratories, Sulzfeld, Germany) as previously described ([Schousboe et al., 1989]). Briefly, pups were decapitated, and the cerebellum was removed and cleared from blood vessels and meninges in ice-cold modified Krebs-Ringer buffer. The cerebellum was dissociated by chopping and trypsinization. Cells were washed in Krebs-Ringer buffer containing DNAse I (Sigma, St. Louis, MO, United States) and soybean trypsin inhibitor (Sigma) to stop trypsinization, and the remaining tissue pieces were pelleted by centrifugation. Cells were then washed in Krebs-Ringer buffer containing Ca^2+ and Mg^2+ and re-suspended in appropriate Neurobasal^TM medium (Invitrogen, Taastrup, Denmark) with supplements depending on the experiment.
Cerebellar granule neurons CGNs were re-suspended in Neurobasal^TM medium supplemented with 2% (v/v) B27, 0.5% (v/v) glutamax, 100 U/ml penicillin, 100 μg/ml streptomycin, 0.4% (w/v) BSA, and 20 mM HEPES and were seeded in 8-well LabTek Permanox chamber slides (Nunc) at a density of 1 × 10^4 cells/cm^2. Various concentrations of ARTN, artefin, scrambled artefin, or reversed artefin were added to neurons immediately after seeding. For the RET inhibition assay, the inhibitory goat anti-mouse RET antibody (4.1 μg/ml; R&D systems, Abingdon, United Kingdom) or control goat IgG (4.1 μg/ml; Santa Cruz Biotechnology, Dallas, TX, United States) were added to neurons 1 h before stimulation with ARTN (0.042 nM) […]. For the competition assay between growth factor and mimetic peptide, a combination of ARTN (2.1 nM) and artefin (4.2 μM) was added to the cells immediately after seeding. To inhibit Fibroblast growth factor receptor (FGFR) pharmacologically, inhibitor of FGFR, SU5402 (Sigma), was added to the growth medium in serial dilutions of 20, 40, and 80 μM immediately after plating of CGNs, followed by addition of either P2-d (8 μg/ml), ARTN (0.21 nM), or artefin (1.4 μM) 1 h after the plating.
(§2) To estimate neurite outgrowth, neurons were fixated 24 h after stimulation and stained with rabbit anti-growth-associated-protein-43 (GAP-43) antibody (Chemicon International, Inc., Temecula, CA, United States) or anti-GFP antibody (for transfection experiment) overnight at 4°C followed by incubation with secondary Alexa-conjugated goat anti-rabbit antibodies (Invitrogen, Taastrup, Denmark). In case of experiments with plasmid transfection, the transfection efficiency was ca. 20% of total cells and the neurite outgrowth was evaluated only in GFP-positive, i.e., transfected, cells. For representative pictures, cells were additionally co-stained with Hoechst 33258.
Computer-assisted fluorescent microscopy was performed using a Nikon Diaphot 300 inverted microscope (Nikon) equipped with a Nikon Plan 20× objective and coupled to a video camera (Grundig Electronics, Germany). For each condition in each experiment, including the experiment with transfections, images of approximately 200 cells were recorded in systematic series of fields of view, and neurite outgrowth was quantified using a stereological approach as previously described ([Rønn et al., 2000]).
FIGURE 6 Inhibition of ARTN-induced (A) and artefin-induced (B) neurite outgrowth in CGNs by anti-RET antibody. CGNs were pre-treated directly after plating for 1 h with anti-RET antibody or control IgG in concentrations 4.1 μg/ml before stimulating with ARTN (0.042 nM) or artefin (0.47 μM).

[2] = tested on: FGFR; cerebellar granule neurons (CGNs); assay: Neurite outgrowth in CGNs transfected with dominant negative FGFR (dnFGFR); type: cell-based, Wistar rat; conditions: 24 h, ARTN 0.21 nM or artefin 1.4 μM
Protocol: as §1, with “Cells were then washed in Krebs-Ringer buffer containing Ca^2+ and Mg^2+ and re-suspended in appropriate Neurobasal^TM medium (Invitrogen, Taastrup, Denmark) with supplements depending on the experiment.” left out
as §2, with “For representative pictures, cells were additionally co-stained with Hoechst 33258.” left out

Molecule	neurite outgrowth without antibody [1]	neurite outgrowth with anti-RET antibody ([1]; anti-RET antibody 4.1 μg/ml)	neurite outgrowth with anti-RET antibody versus unstimulated control ([1]; anti-RET antibody 4.1 μg/ml, artefin 0.47 μM, p < 0.01)	neurite outgrowth with control IgG [1]	neurite outgrowth effect in CGNs expressing dnFGFR [2]
I: RSPHDLSLASLLGAGKK-NH2 / II: RSPHDLSLASLLGAGK / III: RSPHDLSLASLLGAG / IV: RSPHDLSLASLLGAG (amide I:16-IV:C, I:17-II:C, II:16-III:C; C-terminus assumed) [artefin]	significantly increased when compared to the control (p < 0.01)	statistically significant reduction of artefin-induced neurite outgrowth (p < 0.01 versus artefin alone)	still significantly different from unstimulated control	did not significantly alter the neuritogenic effect of artefin	abolished in CGNs expressing dnFGFR
B1	significantly higher level of neurite outgrowth than control cultures	completely abolished the neurite elongation effect of ARTN		did not affect the ARTN-induced neurite outgrowth	abolished in CGNs expressing dnFGFR

— publication PMC6396024, “Artemin and an Artemin-Derived Peptide, Artefin, Induce Neuronal Survival, and Differentiation Through Ret and NCAM” (Frontiers in Molecular Neuroscience, 2019)
